Laboratory results taken from ChEMBL document CHEMBL4390686, “Design, Synthesis, and Pharmacokinetic Evaluation of Phosphate and Amino Acid Ester Prodrugs for Improving the Oral Bioavailability of the HIV-1 Protease Inhibitor Atazanavir” (J Med Chem, 2019).
≈ marks a conversion by molar mass, not a printed value.

What was measured:
[1] = Prodrug conversion in cannulated Sprague-Dawley rat plasma assessed as atazanavir formation at 3 mg/kg equiv of atazanavir administered orally by UPLC/MS/MS analysis; assay type: ADME, organism-based; conditions: in vivo, po
[2] = Prodrug conversion assessed as calf intestinal alkaline phosphatase-mediated compound dephosphorylation by UPLC-MS/MS analysis; assay type: ADME, Bos taurus; conditions: cattle, isolated protein
[3] = physchem; conditions: acetate buffer, pH 4
Description: Aqueous solubility of the compound in pH 4 acetate buffer by RP-UPLC analysis

[4] = rat, in vivo, po, 3 mg/kg
[5] = physchem; conditions: 30% CH3CN/phosphate buffer, pH 6.5
Description: Half life in pH 6.5 30%CH3CN/phosphate buffer at 50 mM by RP-UPLC analysis

[6] = physchem; conditions: HCl buffer, pH 1
Description: Aqueous solubility of the compound in pH 1 HCl buffer by RP-UPLC analysis

[7] = rat, in vivo, po, 3 mg/kg; remark: listed apart in the source
[8] = physchem; conditions: 30% CH3CN/HCl buffer, pH 1
Description: Half life in pH 1 30%CH3CN/HCl buffer at 50 mM by RP-UPLC analysis

[9] = physchem; conditions: 30% CH3CN/acetate buffer, pH 4
Description: Half life in pH 4 30%CH3CN/acetate buffer at 50 mM by RP-UPLC analysis

[10] = rat, in vivo, po, 3 mg/kg; remark: listed apart in the source
Description: AUClast in cannulated Sprague-Dawley rat assessed as atazanavir level at 3 mg/kg equiv of atazanavir administered orally by UPLC/MS/MS analysis

[11] = physchem; conditions: phosphate buffer, pH 6.5
Description: Aqueous solubility of the compound in pH 6.5 phosphate buffer by RP-UPLC analysis

[12] = biological target: Protease (Human immunodeficiency virus 1, UniProt Q9YQ12)
Protease, sequence (Q9YQ12 whole entry): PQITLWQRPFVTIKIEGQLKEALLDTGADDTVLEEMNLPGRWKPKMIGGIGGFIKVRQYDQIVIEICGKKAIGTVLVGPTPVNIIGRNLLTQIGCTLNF
Description: Inhibition of HIV1 protease activity

[13] = test system: Human immunodeficiency virus 1
Description: Antiviral activity against HIV1 NL4-3 infected in human MT2 cells assessed as reduction in viral yield measured after 4 days by EnduRen live cell substrate based luciferase reporter gene assay

[14] = Ratio of test compound to atazanavir aqueous solubility in pH 6.5 phosphate buffer by RP-UPLC analysis; assay type: physicochemical
[15] = physchem; conditions: phosphate buffer, pH 7.4
Description: Aqueous solubility of the compound in pH 7.4 phosphate buffer by RP-UPLC analysis

[16] = physchem; conditions: 30% CH3CN/phosphate buffer, pH 7.4
Description: Half life in pH 7.4 30%CH3CN/phosphate buffer at 50 mM by RP-UPLC analysis

[17] = in vitro; conditions: human, Caco-2
Description: Efflux ratio of apparent permeability across basolateral to apical side over apical to basolateral side in human Caco2 cells

[18] = in vitro; conditions: human, Caco-2; remark: listed apart in the source
Description: Apparent permeability across basolateral to apical side in human Caco2 cells at 2 uM

[19] = in vitro; conditions: human, Caco-2; remark: listed apart in the source
Description: Apparent permeability across apical to basolateral side in human Caco2 cells at 2 uM

SMILES	Drug metabolism [1]	Drug metabolism [2]	solubility [3] [µg/mL]	Cmax [4] [nM]	half-life at 50000 µM [5] [days]	solubility [6] [µg/mL]	Tmax [7] [days]	half-life at 50000 µM [8] [days]	half-life at 50000 µM [9] [days]	AUClast [10] [µM·h]	solubility [11] [µg/mL]	IC50 [12] [nM]	EC50 [13] [nM]	Ratio [14]	solubility [15] [µg/mL]	half-life at 50000 µM [16] [days]	efflux ratio [17]	Papp B→A at 2 µM [18] [×10⁻⁶ cm/s]	Papp A→B at 2 µM [19] [×10⁻⁶ cm/s]
COC(=O)N[C@H](C(=O)N[C@@H](Cc1ccccc1)[C@H](CN(Cc1ccc(-c2ccccn2)cc1)NC(=O)[C@@H](NC(=O)OC)C(C)(C)C)OC(=O)CN(C)C(=O)[C@H](Cc1ccccc1)N(C)C)C(C)(C)C	–	–	> 2200	285	> 13.9	> 1200	0.021	15.7	> 20.8	0.359	20 (≈ 21 µM)	–	–	–	–	–	–	–	–
CN[C@@H](Cc1ccccc1)C(=O)N(C)CC(=O)O[C@@H](CN(Cc1ccc(-c2ccccn2)cc1)NC(=O)[C@@H](NC(=O)OC)C(C)(C)C)[C@H](Cc1ccccc1)NC(=O)[C@@H](NC(=O)OC)C(C)(C)C	–	–	–	160	0.00333	> 2700	0.012	15.7	0.65	0.092	–	–	–	–	–	–	–	–	–
COC(=O)N[C@H](C(=O)N[C@@H](Cc1ccccc1)[C@H](CN(Cc1ccc(-c2ccccn2)cc1)NC(=O)[C@@H](NC(=O)OC)C(C)(C)C)OC(=O)[C@@H](N)CCSC)C(C)(C)C	–	–	> 1530	37	–	> 1630	0.0346	> 20.8	> 20.8	0.053	–	–	–	–	44 (≈ 52.6 µM)	4.33	–	–	–
COC(=O)N[C@H](C(=O)N[C@@H](Cc1ccccc1)[C@H](CN(Cc1ccc(-c2ccccn2)cc1)NC(=O)[C@@H](NC(=O)OC)C(C)(C)C)OC(=O)CN(C)C)C(C)(C)C	–	–	> 1700	66.8	–	> 1400	0.012	> 20.8	> 20.8	0.0457	–	4 to 1140	0.9 to 1250	–	360 (≈ 456 µM)	7.83	> 8.8	13.2	< 1.5
COC(=O)N[C@H](C(=O)N[C@@H](Cc1ccccc1)[C@H](CN(Cc1ccc(-c2ccccn2)cc1)NC(=O)[C@@H](NC(=O)OC)C(C)(C)C)OC(=O)[C@@H](NC(=O)[C@H](N)C(C)C)C(C)C)C(C)(C)C	–	–	> 2000	–	> 20.8	> 2000	–	> 20.8	> 20.8	–	620 (≈ 686 µM)	4 to 1140	0.9 to 1250	–	–	–	–	–	–
COC(=O)N[C@H](C(=O)N[C@@H](Cc1ccccc1)[C@H](CN(Cc1ccc(-c2ccccn2)cc1)NC(=O)[C@@H](NC(=O)OC)C(C)(C)C)OC(=O)[C@H](C)N)C(C)(C)C	–	–	> 1100	39	1.57	> 1300	0.12	> 20.8	> 20.8	0.094	750 (≈ 967 µM)	4 to 1140	0.9 to 1250	–	–	–	–	–	–
COC(=O)N[C@H](C(=O)N[C@@H](Cc1ccccc1)[C@H](CN(Cc1ccc(-c2ccccn2)cc1)NC(=O)[C@@H](NC(=O)OC)C(C)(C)C)OC(=O)[C@@H](N)Cc1ccc(F)cc1)C(C)(C)C	–	–	> 980	305	–	> 1380	0.021	> 20.8	> 20.8	0.463	–	–	–	–	< 1	13.9	> 5.5	8.2	< 1.5
COC(=O)N[C@H](C(=O)N[C@@H](Cc1ccccc1)[C@H](CN(Cc1ccc(-c2ccccn2)cc1)NC(=O)[C@@H](NC(=O)OC)C(C)(C)C)OC(=O)[C@H](N)CCSC)C(C)(C)C	–	–	> 890	–	–	> 990	–	> 20.8	> 20.8	–	–	–	–	–	45 (≈ 53.8 µM)	4.05	–	–	–
CC(C)CN(C[C@@H](OP(=O)(O)O)[C@H](Cc1ccccc1)NC(=O)O[C@H]1CCOC1)S(=O)(=O)c1ccc(N)cc1 [FOSAMPRENAVIR]	Metabolite_Notdetected	Metabolite_Notdetected	–	–	–	–	–	–	–	–	–	–	–	–	–	–	–	–	–

The remaining lines, values ahead:

Drug metabolism [1]	Drug metabolism [2]	solubility [3] [µg/mL]	Cmax [4] [nM]	half-life at 50000 µM [5] [days]	solubility [6] [µg/mL]	Tmax [7] [days]	half-life at 50000 µM [8] [days]	half-life at 50000 µM [9] [days]	AUClast [10] [µM·h]	solubility [11] [µg/mL]	IC50 [12] [nM]	EC50 [13] [nM]	Ratio [14]	solubility [15] [µg/mL]	half-life at 50000 µM [16] [days]	efflux ratio [17]	Papp B→A at 2 µM [18] [×10⁻⁶ cm/s]	Papp A→B at 2 µM [19] [×10⁻⁶ cm/s]	SMILES
Metabolite_Notdetected	Metabolite_Notdetected	–	–	–	–	–	–	–	–	–	–	–	–	–	–	–	–	–	Cc1cccc(C)c1OCC(=O)N[C@@H](Cc1ccccc1)[C@H](C[C@H](Cc1ccccc1)NC(=O)[C@H](C(C)C)N1CCCNC1=O)OP(=O)(O)O
–	–	> 2400	9	1.04	> 2200	0.021	> 20.8	> 13.9	0.0296	930 (≈ 1200 µM)	–	–	–	–	–	–	–	–	CNCC(=O)O[C@@H](CN(Cc1ccc(-c2ccccn2)cc1)NC(=O)[C@@H](NC(=O)OC)C(C)(C)C)[C@H](Cc1ccccc1)NC(=O)[C@@H](NC(=O)OC)C(C)(C)C
–	–	> 1420	–	> 20.8	> 1710	–	> 20.8	> 20.8	–	930 (≈ 1030 µM)	4 to 1140	0.9 to 1250	–	–	–	–	–	–	COC(=O)N[C@H](C(=O)N[C@@H](Cc1ccccc1)[C@H](CN(Cc1ccc(-c2ccccn2)cc1)NC(=O)[C@@H](NC(=O)OC)C(C)(C)C)OC(=O)[C@H](NC(=O)[C@@H](N)C(C)C)C(C)C)C(C)(C)C
–	–	> 2300	51	3.69	> 2100	0.021	> 20.8	> 20.8	0.307	230 (≈ 253 µM)	–	–	> 200	–	–	–	–	–	COC(=O)N[C@H](C(=O)N[C@@H](Cc1ccccc1)[C@H](CN(Cc1ccc(-c2ccccn2)cc1)NC(=O)[C@@H](NC(=O)OC)C(C)(C)C)OC(=O)CNC(=O)[C@H](N)Cc1ccccc1)C(C)(C)C
–	–	> 910	90	–	> 1040	0.033	15.7	15.7	0.19	–	–	–	–	1 (≈ 1.12 µM)	6.97	–	–	–	COC(=O)N[C@H](C(=O)N[C@@H](Cc1ccccc1)[C@H](CN(Cc1ccc(-c2ccccn2)cc1)NC(=O)[C@@H](NC(=O)OC)C(C)(C)C)OC(=O)[C@@H](N)Cc1c[nH]c2ccccc12)C(C)(C)C
–	–	> 710	55	13.9	> 990	0.025	> 20.8	> 20.8	0.1	< 1	–	–	–	–	–	> 6.4	9.6	< 1.5	COC(=O)N[C@H](C(=O)N[C@@H](Cc1ccccc1)[C@H](CN(Cc1ccc(-c2ccccn2)cc1)NC(=O)[C@@H](NC(=O)OC)C(C)(C)C)OC(=O)CNCc1ccccc1)C(C)(C)C
–	–	> 1420	99	–	> 980	0.017	> 20.8	15.7	0.103	–	–	–	–	9 (≈ 10.4 µM)	8.95	> 4.7	7.1	< 1.5	COC(=O)N[C@H](C(=O)N[C@@H](Cc1ccccc1)[C@H](CN(Cc1ccc(-c2ccccn2)cc1)NC(=O)[C@@H](NC(=O)OC)C(C)(C)C)OC(=O)[C@@H](N)Cc1ccc(O)cc1)C(C)(C)C
–	–	> 1200	64	> 20.8	> 1200	0.021	> 20.8	> 20.8	0.154	< 1	4 to 1140	0.9 to 1250	–	–	–	–	–	–	COC(=O)N[C@H](C(=O)N[C@@H](Cc1ccccc1)[C@H](CN(Cc1ccc(-c2ccccn2)cc1)NC(=O)[C@@H](NC(=O)OC)C(C)(C)C)OC(=O)[C@H](N)Cc1ccccc1)C(C)(C)C
–	–	> 3500	9	3.06	> 2900	0.017	> 20.8	> 20.8	0.016	> 640	–	–	> 200	–	–	–	–	–	COC(=O)N[C@H](C(=O)N[C@@H](Cc1ccccc1)[C@H](CN(Cc1ccc(-c2ccccn2)cc1)NC(=O)[C@@H](NC(=O)OC)C(C)(C)C)OC(=O)CNC(=O)[C@@H](N)Cc1ccccc1)C(C)(C)C
–	–	> 1600	162	–	> 1200	0.38	> 20.8	> 20.8	0.224	–	4 to 1140	0.9 to 1250	–	960 (≈ 1260 µM)	1.63	–	–	–	COC(=O)N[C@H](C(=O)N[C@@H](Cc1ccccc1)[C@H](CN(Cc1ccc(-c2ccccn2)cc1)NC(=O)[C@@H](NC(=O)OC)C(C)(C)C)OC(=O)CN)C(C)(C)C
–	–	> 1700	3	1.57	> 1300	0.179	> 20.8	> 20.8	0.008	520 (≈ 670 µM)	4 to 1140	0.9 to 1250	–	–	–	–	–	–	COC(=O)N[C@H](C(=O)N[C@@H](Cc1ccccc1)[C@H](CN(Cc1ccc(-c2ccccn2)cc1)NC(=O)[C@@H](NC(=O)OC)C(C)(C)C)OC(=O)[C@@H](C)N)C(C)(C)C
